The subject of one experiment is IR-HIS. Put plainly: IR-HIS protein kinase assay. Format: biochemical, human. Conditions: for residual kinase activity: IR-HIS. From the text:
(§1) All protein kinases were of human origin and encoded full length proteins, unless indicated otherwise. They were either expressed as glutathione S-transferase (GST) fusion proteins in Escherichia Coli or as hexahistidine (His6)-tagged proteins in insect Sf21 cells. GST fusion proteins were purified by affinity chromatography on glutathione-Sepharose, and His6-tagged proteins on nickel/nitriloacetate-agarose. The procedures for expressing some of the protein kinases used herein have been detailed previously.^8,9 The following sections outline the DNA vectors synthesised and the procedures used to express and purifying protein kinases that have not been reported previously.
(§2) All assays (25.5 μl) were carried out at room temperature (21° C.) and were linear with respect to time and enzyme concentration under the conditions used. Assays were performed for 30 min using Multidrop Micro reagent dispensers (Thermo Electron Corporation, Waltham, Mass. 02454, USA) in a 96-well format. The concentration of magnesium acetate in the assays was 10 mM and the [γ-33P] ATP (800 cpm/pmol) was used at 5, 20 or 50 μM as indicated, in order to be at or below the Km for ATP for each enzyme. Protein kinases assayed at 5 μM ATP were: —ERK1, ERK8, PKBα, MARK3, Aurora C. Protein kinases assayed at 20 μM ATP were: —JNK1, PDK1, CHK1, CHK2, CDK2 and Aurora B. Protein kinases assayed at 50 μM ATP were: —MNK2, IKKepsilon and TBK1.
(§3) The assays were initiated with MgATP, stopped by addition of 5 μl of 0.5 M orthophosphoric acid and spotted on to P81 filterplates using a unifilter harvester (PerkinElmer, Boston, Mass. 02118, USA). The IC50 values of inhibitors were determined after carrying out assays at 10 different concentrations of each compound.
(§4) Unless stated otherwise, enzymes were diluted in 50 mM Tris/HCl pH 7.5, 0.1 mM EGTA, 1 mg/ml BSA, 0.1% (v/v) 2-mercaptoethanol and assayed in 50 mM Tris/HCl pH 7.5, 0.1 mM EGTA, 0.1% (v/v) 2-mercaptoethanol.

A further experiment deals with T1, PKCa (Homo sapiens, UniProt P17252).
T1 construct: All protein kinases were of human origin and encoded full length proteins, unless indicated otherwise; made in house
Put plainly: PKCa protein kinase assay. In kind it is biochemical. Conditions: for remaining activity at 10 µM: 10 μM compound; for residual kinase activity PKCa: 1 μm compound; for remaining activity at 1 µM: 1 μM compound.
Text: as §1, §2, §3, §4

A further experiment has as its target T2, ERK8 (Homo sapiens, UniProt Q8TD08).
T2 construct: All protein kinases were of human origin and encoded full length proteins, unless indicated otherwise; His6; made in house; host or cells: insect Sf21 cells
T2 sequence (Q8TD08 1-544): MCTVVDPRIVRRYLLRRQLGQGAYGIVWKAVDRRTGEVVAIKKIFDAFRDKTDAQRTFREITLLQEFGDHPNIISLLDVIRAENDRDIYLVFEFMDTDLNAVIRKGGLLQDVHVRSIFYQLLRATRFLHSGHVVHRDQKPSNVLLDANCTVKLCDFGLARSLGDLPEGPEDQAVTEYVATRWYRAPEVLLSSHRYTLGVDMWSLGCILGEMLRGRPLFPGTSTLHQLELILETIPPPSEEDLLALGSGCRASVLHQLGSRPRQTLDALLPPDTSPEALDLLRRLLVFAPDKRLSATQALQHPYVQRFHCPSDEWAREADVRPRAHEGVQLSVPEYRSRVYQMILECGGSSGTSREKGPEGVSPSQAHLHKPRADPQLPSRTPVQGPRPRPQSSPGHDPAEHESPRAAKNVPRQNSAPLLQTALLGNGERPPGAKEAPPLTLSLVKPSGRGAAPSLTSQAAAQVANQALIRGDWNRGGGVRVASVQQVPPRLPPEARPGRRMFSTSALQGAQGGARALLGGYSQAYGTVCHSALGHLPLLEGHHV
Kind of experiment: ERK8 protein kinase assay. Conditions: for remaining activity at 10 µM: 10 μM compound; for residual kinase activity ERK8: 1 μm compound; for remaining activity at 1 µM: 1 μM compound. In kind it is biochemical.
Text: as §1
(§5) The following kinases were expressed in Sf21 cells: Aurora B and Aurora C, extra-cellular signal-regulated kinase 8 (ERK8), microtubule affinity regulating kinase 3 (MARK3), protein kinase Bα[118-480][S473D], protein kinase Bβ (PKBβ[120-481][S474D], 3-phosphoinositide-dependent protein kinase-1 [52-556]
as §2, §3
(§6) ERK1 and ERK8 were both assayed against myelin basic protein (MBP, 0.33 mg/ml). MARK3 was assayed against the peptide […] (300 μM), MNK2 against the eIF4E protein (0.5 mg/ml). PKBβ was assayed against the peptide […] (30 μM). TBK1 were assayed against ([…]) (300 μM). The substrates used for other protein kinases were described previously.^8,9
as §4

In another experiment the target is T3, SGK1 (Homo sapiens, UniProt O00141, S422D).
T3 construct: All protein kinases were of human origin and encoded full length proteins, unless indicated otherwise; made in house
T3 sequence (O00141 60-431 S422D limits assumed): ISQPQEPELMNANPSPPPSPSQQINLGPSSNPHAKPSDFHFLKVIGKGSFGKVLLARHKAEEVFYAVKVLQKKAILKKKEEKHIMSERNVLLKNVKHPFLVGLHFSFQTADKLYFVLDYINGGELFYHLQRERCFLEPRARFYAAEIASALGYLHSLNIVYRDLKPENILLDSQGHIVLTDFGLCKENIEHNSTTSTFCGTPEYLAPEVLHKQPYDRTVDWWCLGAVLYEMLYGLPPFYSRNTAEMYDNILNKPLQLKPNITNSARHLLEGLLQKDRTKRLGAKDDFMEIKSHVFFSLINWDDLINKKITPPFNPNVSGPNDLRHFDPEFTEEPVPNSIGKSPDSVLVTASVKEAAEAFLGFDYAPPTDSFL
Kind of experiment: SGK1 protein kinase assay. Format: biochemical. Conditions: for remaining activity at 10 µM: 10 μM compound; for residual kinase activity SGK1: 1 μm compound; for remaining activity at 1 µM: 1 μM compound.
Text: as §1, §2, §3, §4

For another experiment, the target named is T4, S6K1 (Homo sapiens, UniProt P23443, T412E).
T4 construct: All protein kinases were of human origin and encoded full length proteins, unless indicated otherwise; made in house
T4 sequence (P23443 1-421 T412E limits assumed): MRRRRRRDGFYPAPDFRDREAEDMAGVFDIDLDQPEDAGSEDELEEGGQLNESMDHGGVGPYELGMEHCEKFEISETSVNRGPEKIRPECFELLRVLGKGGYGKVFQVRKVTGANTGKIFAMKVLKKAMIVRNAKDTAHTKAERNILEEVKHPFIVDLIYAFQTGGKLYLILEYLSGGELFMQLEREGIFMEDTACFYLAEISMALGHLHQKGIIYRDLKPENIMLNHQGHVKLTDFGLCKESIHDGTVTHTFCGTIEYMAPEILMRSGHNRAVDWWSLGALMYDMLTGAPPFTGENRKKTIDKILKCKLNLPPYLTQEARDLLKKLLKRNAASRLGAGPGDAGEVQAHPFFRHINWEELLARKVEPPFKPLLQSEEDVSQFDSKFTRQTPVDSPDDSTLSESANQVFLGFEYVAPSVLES
Put plainly: S6K1 protein kinase assay. Conditions: for remaining activity at 10 µM: 10 μM compound; for residual kinase activity S6K1: 1 μm compound; for remaining activity at 1 µM: 1 μM compound. Format: biochemical.
Text: as §1, §2, §3, §4

In a further experiment the target is T5, MARK3 (Homo sapiens, UniProt P27448).
T5 construct: All protein kinases were of human origin and encoded full length proteins, unless indicated otherwise; His6; made in house; host or cells: Sf21 insect cells
T5 sequence (P27448 whole entry): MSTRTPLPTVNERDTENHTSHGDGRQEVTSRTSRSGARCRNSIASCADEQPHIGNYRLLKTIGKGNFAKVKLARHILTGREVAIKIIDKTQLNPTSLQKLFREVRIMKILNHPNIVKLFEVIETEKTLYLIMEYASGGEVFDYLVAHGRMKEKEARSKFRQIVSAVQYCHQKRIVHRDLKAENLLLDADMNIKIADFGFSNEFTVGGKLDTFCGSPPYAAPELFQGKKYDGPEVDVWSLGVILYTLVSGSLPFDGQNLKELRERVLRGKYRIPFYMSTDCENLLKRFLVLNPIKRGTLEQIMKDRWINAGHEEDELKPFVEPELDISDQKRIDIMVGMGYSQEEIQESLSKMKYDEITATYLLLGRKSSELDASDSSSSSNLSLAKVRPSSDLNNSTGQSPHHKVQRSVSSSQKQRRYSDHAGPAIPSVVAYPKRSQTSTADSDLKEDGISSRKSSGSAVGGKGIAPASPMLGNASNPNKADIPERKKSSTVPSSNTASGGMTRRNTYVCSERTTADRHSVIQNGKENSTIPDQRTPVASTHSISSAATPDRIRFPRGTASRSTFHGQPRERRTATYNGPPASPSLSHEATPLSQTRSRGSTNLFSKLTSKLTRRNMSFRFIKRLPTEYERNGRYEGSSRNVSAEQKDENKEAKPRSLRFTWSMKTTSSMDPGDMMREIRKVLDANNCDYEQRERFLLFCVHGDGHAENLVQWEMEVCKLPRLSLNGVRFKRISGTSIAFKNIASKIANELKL
Kind of experiment: MARK3 protein kinase assay. In kind it is biochemical. Conditions: for remaining activity at 10 µM: 10 μM compound; for residual kinase activity MARK3: 1 μm compound; for remaining activity at 1 µM: 1 μM compound.
Text: as §1, §5, §2, §3, §6, §4

A further experiment deals with SmMLCK. Kind of experiment: SmMLCK protein kinase assay. Format: biochemical, human. Conditions: for residual kinase activity: SmMLCK.
Text: as §1, §2, §3, §4

The next experiment concerns the target T6, MSK1 (Homo sapiens, UniProt O75582).
T6 construct: All protein kinases were of human origin and encoded full length proteins, unless indicated otherwise; made in house
Put plainly: MSK1 protein kinase assay. Format: biochemical. Conditions: for remaining activity at 10 µM: 10 μM compound; for residual kinase activity MSK1: 1 μm compound; for remaining activity at 1 µM: 1 μM compound.
Text: as §1, §2, §3, §4

Setting [1] is: read-out: residual kinase activity PKCa.
Where [2] appears, read: read-out: residual kinase activity ERK8.
Where [3] appears, read: read-out: residual kinase activity SGK1.
Setting [4] is: read-out: residual kinase activity S6K1.
Setting [5] is: read-out: residual kinase activity MARK3.
Where [6] appears, read: read-out: residual kinase activity MSK1.
Setting [7] is: PKCa, read-out: residual kinase activity.
Setting [8] is: ERK8, 5 μM ATP, read-out: residual kinase activity.
Setting [9] is: SGK1, read-out: residual kinase activity.
Setting [10] is: S6K1, read-out: residual kinase activity.
Setting [11] is: MARK3, 5 μM ATP, read-out: residual kinase activity.
The mark [12] stands for this setting: MSK1, read-out: residual kinase activity.

Counter-ions that a name gives are not always drawn. Like-named read-outs stand apart in the source and are kept apart here.

T6 sequence (O75582 whole entry): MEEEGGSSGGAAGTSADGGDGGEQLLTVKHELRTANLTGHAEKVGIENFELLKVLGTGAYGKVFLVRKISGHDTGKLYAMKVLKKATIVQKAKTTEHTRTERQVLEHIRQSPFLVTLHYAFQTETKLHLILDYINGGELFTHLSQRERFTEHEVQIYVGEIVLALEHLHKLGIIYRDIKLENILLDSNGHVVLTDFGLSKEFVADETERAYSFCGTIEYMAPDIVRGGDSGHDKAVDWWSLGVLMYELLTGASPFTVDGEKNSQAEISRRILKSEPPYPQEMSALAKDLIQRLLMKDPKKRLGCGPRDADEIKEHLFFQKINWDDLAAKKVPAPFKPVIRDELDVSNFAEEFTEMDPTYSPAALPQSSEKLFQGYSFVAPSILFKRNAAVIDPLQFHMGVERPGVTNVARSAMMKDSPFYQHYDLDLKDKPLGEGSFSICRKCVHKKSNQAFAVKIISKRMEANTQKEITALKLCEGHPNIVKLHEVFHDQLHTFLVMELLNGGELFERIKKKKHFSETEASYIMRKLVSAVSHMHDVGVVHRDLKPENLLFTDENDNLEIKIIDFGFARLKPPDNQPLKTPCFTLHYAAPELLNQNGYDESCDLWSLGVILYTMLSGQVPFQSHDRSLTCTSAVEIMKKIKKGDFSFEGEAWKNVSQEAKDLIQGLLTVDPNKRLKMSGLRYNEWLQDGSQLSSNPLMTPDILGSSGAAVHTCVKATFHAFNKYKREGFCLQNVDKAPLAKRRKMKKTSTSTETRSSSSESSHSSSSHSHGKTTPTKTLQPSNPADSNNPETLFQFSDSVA

Turning to `O=C(NCCCNc1nc(Nc2cccc(F)c2)ncc1Br)C1CCC1` [Compound A, cyclobutanecarboxylic acid {3-[5-bromo-2-(3-fluoro-phenylamino)-pyrimidin-4-ylamino]-propyl}-amide, reference compound], the “residual kinase activity IR-HIS” value in the experiment with IR-HIS (10 μM compound) is recorded as 69%; in the experiment with IR-HIS (1 μm compound), 91%. The remaining activity at 10 µM worked out at 49% at PKCa (setting [1]); 3% on ERK8 (setting [2]); 18% on SGK1 (setting [3]); 13% at S6K1 (setting [4]); 2% at MARK3 (setting [5]); 24% at MSK1 (setting [6]). Further, on PKCa, the “residual kinase activity PKCa” value stood at 94%. Also, the “residual kinase activity ERK8” value at ERK8 is given as 9%. The “residual kinase activity SGK1” value at SGK1 is recorded as 59%. On S6K1, the “residual kinase activity S6K1” value amounted to 49%. On MARK3, the “residual kinase activity MARK3” value is 3%. Further, the figures for the “residual kinase activity SmMLCK” value with SmMLCK (10 μM compound) and in the experiment with SmMLCK (1 μm compound) were 59% and 101%, respectively. For the same compound, the “residual kinase activity MSK1” value at MSK1 came out at 62%.

With `O=C(NCCCNc1nc(Nc2cccc(F)c2)ncc1C1CC1)C1CCC1` [Example 23, Cyclobutanecarboxylic acid {3-[5-cyclopropyl-2-(3-fluoro-phenylamino)-pyrimidin-4-ylamino]-propyl}-amide], the “residual kinase activity IR-HIS” value is given as 86% in the experiment with IR-HIS (10 μM compound) and 105% in the experiment on IR-HIS (1 μm compound). In addition, the residual kinase activity was found to be 105% in the experiment on IR-HIS (1 μM compound), 86% in the experiment with IR-HIS (10 μM compound), 72% with SmMLCK (1 μM compound) and 74% with SmMLCK (10 μM compound). Besides, the remaining activity at 10 µM at PKCa (setting [1]) is 87%; at PKCa (setting [7]), 87%; at ERK8 (setting [2]) it was 6%; at ERK8 (setting [8]), 6%; at SGK1 (setting [3]) it was 64%; at SGK1 (setting [9]), 64%. The remaining activity at 10 µM on S6K1 (setting [4]) is 30%; on S6K1 (setting [10]), 30%; at MARK3 (setting [5]), 1%; at MARK3 (setting [11]), 1%; at MSK1 (setting [6]), 34%; on MSK1 (setting [12]) it was 34%. Further, the “residual kinase activity PKCa” value at PKCa was determined as 81%. For the same compound, the remaining activity at 1 µM on PKCa (setting [7]) turned out to be 81%; on ERK8 (setting [8]), 14%; at SGK1 (setting [9]), 100%; at S6K1 (setting [10]), 38%; on MARK3 (setting [11]) it was 0%; on MSK1 (setting [12]), 74%. For the same compound, the “residual kinase activity ERK8” value on ERK8 is 14%. Moreover, at SGK1, the “residual kinase activity SGK1” value worked out at 100%. Besides, the “residual kinase activity S6K1” value at S6K1 is recorded as 38%. Also, the “residual kinase activity MARK3” value at MARK3 is on record as 0%. Moreover, the “residual kinase activity SmMLCK” value in the experiment with SmMLCK (10 μM compound) turned out to be 74%; in the experiment with SmMLCK (1 μm compound), 72%. Moreover, the “residual kinase activity MSK1” value on MSK1 is listed as 74%.

Take `O=C(NCCCNc1nc(Nc2cccc(N3CCCC3=O)c2)ncc1C1CC1)c1cccs1` [Example 47, Thiophene-2-carboxylic acid (3-{5-cyclopropyl-2-[3-(2-oxo-pyrrolidin-1-yl)-phenylamino]-pyrimidin-4-ylamino}-propyl)-amide. Hydrochloride salt]: the residual kinase activity in the experiment with IR-HIS (1 μM compound) turned out to be 105%; in the experiment with IR-HIS (10 μM compound), 85%; with SmMLCK (1 μM compound) it was 102%; in the experiment on SmMLCK (10 μM compound), 81%. For the same compound, the remaining activity at 1 µM on PKCa (setting [7]) stood at 83%; on ERK8 (setting [8]), 33%; at SGK1 (setting [9]), 71%; at S6K1 (setting [10]) it was 63%; on MARK3 (setting [11]), 15%; on MSK1 (setting [12]), 61%. Further, the remaining activity at 10 µM is 69% on PKCa (setting [7]); 10% on ERK8 (setting [8]); 59% at SGK1 (setting [9]); 30% at S6K1 (setting [10]); 4% at MARK3 (setting [11]); 54% at MSK1 (setting [12]).

With `O=C(NCCCNc1nc(Nc2cccnc2)ncc1C1CC1)c1cccs1` [Example 50, Thiophene-2-carboxylic acid {3-[5-cyclopropyl-2-(pyridin-3-ylamino)-pyrimidin-4-ylamino]-propyl}-amide], the residual kinase activity in the experiment on IR-HIS (1 μM compound) was 109%; with IR-HIS (10 μM compound) it was 109%; in the experiment on SmMLCK (1 μM compound) it was 88%; with SmMLCK (10 μM compound), 75%. Besides, the remaining activity at 1 µM on PKCa (setting [7]) is 85%; on ERK8 (setting [8]), 13%; at SGK1 (setting [9]), 86%; at S6K1 (setting [10]), 63%; on MARK3 (setting [11]), 13%; at MSK1 (setting [12]), 77%. For the same compound, the remaining activity at 10 µM was found to be 70% on PKCa (setting [7]); 5% at ERK8 (setting [8]); 57% at SGK1 (setting [9]); 30% on S6K1 (setting [10]); 2% at MARK3 (setting [11]); 70% at MSK1 (setting [12]).
